Experimental data reported in patent US20240374738A1, “BIFUNCTIONAL COMPOUND CAPABLE OF DEGRADING RECEPTOR TYROSINE KINASE AND APPLICATION THEREOF” (TAIBIDI PHARMACEUTICAL TECHNOLOGY (SHIJIAZHUANG) CO., LTD., priority 2023, published 2024).

Experiments:
Assay type in all cases: cell-based
DDR1 = DDR1 (Homo sapiens, UniProt Q08345); assay: Degradation of DDR1 in tumor cell MKN45 (Western blot); set-up: The degradation activity of the compounds against DDR1 in the MKN45 cell line; endogenous in cells; host or cells: MKN45; details: MKN-45, maximum degradation percentage, MKN45 cells, 24 hours
Procedure: Western blot experiment: Take gastric cancer cells (MKN45) and inoculate them into a 6-well plate at a concentration of […], adding 2 ml to each well and incubating for 24 hours.
The next day, observe the cells under a microscope to confirm their status. Prepare compounds, weigh a certain amount of the series compounds or reference drug cabozantinib from this patent, first prepare a high concentration mother liquor with pure DMSO, and use gradient dilution method to prepare compound concentrations of 2 mM, 200 μM, 100 μM, 20 μM, 2 μM, 200 nM, and 0 nM. The final concentration of DMSO is 0.5%. Shake to thoroughly mix. Add 10 μl of solution to each well. After incubation for 24 hours, remove the cells and use a pipette to aspirate the suspended cells into a 1.5 ml centrifuge tube. Centrifuge at 5000 rpm for 10 minutes to precipitate the cells. Carefully remove the cell precipitate from the culture medium, add 1 ml of PBS and shake slightly. After repeated cleaning for 3 times, dry the residue. Add 150 μl of RIPA lysate pre mixed with 1% PMSF, blow to allow the lysate to fully contact the cells, and incubate on ice for 10 minutes. Centrifuge at 12000 rpm for 10 minutes, extract the supernatant, use the BCA protein quantification kit to determine and homogenize the sample loading.
Mix BCA-A in a 50:1 ratio Prepare working solution with B solution, dilute the sample by 5 times, then pipette 20 μl onto a 96 well ELISA plate. Add 200 μl of pre mixed BCA working solution and incubate at 37° C. for 20 minutes. Measure the A562 nm absorbance value using an ELISA reader and substitute it into the protein standard curve formula to obtain the sample concentration. After calculating the required volume for loading […] of sample, divide the sample into 1.5 ml centrifuge tubes. Add 10 μl of sample buffer to each tube and mix well. Heat in a 95° C. metal bath for 5 minutes to denature the protein.
Take 4-20% gradient pre adhesive and fix it on the adhesive rack. Add electrophoresis solution to the slot and remove the comb, Marker and protein samples were loaded, and after 30 minutes of electrophoresis at 80V, the voltage was adjusted to 120V for electrophoresis, The marker band stops electrophoresis at the forefront of the gel. Take out the adhesive block and cut it to the appropriate size, The PVDF membrane was cut and activated in methanol, and after activation, the PVDF membrane was equilibrated in a membrane transfer equilibrium solution for 1 minute. Using sponge pads The sequence of PVDF film, adhesive, and sponge pad is placed in the splint and placed in the eBlot equipment for rapid wet rotation. Remove the membrane and seal it in 5% skim milk powder dissolved in 1×TBST for 1 hour. Cut the membrane according to the molecular weight of the target protein and internal reference protein, and place it in primary antibody diluted with 1×TBST. Shake overnight at 4° C.
The next day, transfer the band to 1×TBST for 3 washes, then add a specific dilution of the secondary antibody and shake it for 1.5 hours. Transfer the band again to 1×TBST for 3 washes, prepare ECL color solution, place the membrane in the imaging system, cover the surface with ECL color solution, and take photos of the membrane using the imaging system.
Using the SHST analysis system to analyze the results, measure the grayscale values of each band of the target protein and internal reference protein. Normalize the grayscale values of the target protein/corresponding lane GAPDH grayscale values, and perform quantitative analysis according to the protein amount=experimental group grayscale value/blank control group grayscale value.
The activity of the compound of the present invention in degrading DDR in tumor cell line MKN45 was measured. […]

MKN45 = assay: Growth inhibition of gastric cancer cells MKN45 (CCK-8); details: Homo sapiens, MKN-45, half inhibitory concentration, 72 hours
Procedure: (§1) Inoculate gastric cancer cells (SNU5 or MKN45) into a 96 well plate at a concentration of […], with 100 μl added to each well. Incubate for 30 minutes. Observe the cell status under a microscope. Prepare compounds, weigh a certain amount of the series compounds or reference drug cabozantinib of this patent, first prepare a high concentration mother liquor with pure DMSO, and use gradient dilution method to prepare a concentration of 200 μM, 60 μM, 20 μM, 6 μM, 2 μM, 600 nM, 200 nM, 0 nM drug solution, shake to make it fully mixed. The control group was prepared with cabozantinib using the same solvent and method.
(§2) After preparation, add 1 μl of drug solution to each well of the 96 well plate, and then add 100 μl of culture medium. Repeat each dose three times. Gently shake to allow the cells and medication to come into full contact and incubate in the incubator for 72 hours. 72 hours later, remove and color with CCK-8 reagent kit. Add 20 μl of CCK-8 reagent to each well, gently shake well, and incubate in the incubator for 1 hour. After 1 hour, remove and measure the absorbance of each well using an enzyme-linked immunosorbent assay (ELISA) reader at a wavelength of 450 nm.
(§3) According to the formula: Cell growth inhibition rate=[1−(absorbance of experimental group absorbance of culture medium control group)/(absorbance of blank control group−absorbance of culture medium control group)]×100%. It can be concluded that the compound has the ability to inhibit the growth of gastric cancer cells at the current dose and time.
(§4) Draw a graph based on the gradient of concentration and use GraphPad Prism 9 software (GraphPad Software, La Jolla, CA) to calculate the maximum inhibitory concentration (IC50) at 50%.
(§5) Referring to steps 1 and 2 of this embodiment, the inhibitory effect of the compound of the present invention on the growth of cancer cells and the degradation effect of target proteins were measured, and the following results were obtained (see Table 2 below).
(§6) The growth inhibitory effects of the compound of the present invention on tumor cell lines MKN45 and SNU5 were measured. The activity is expressed as half inhibitory concentration (C50). The results are shown in Table 2 below; When the half inhibitory concentration is less than or equal to 100 nM, the compound activity is labeled as “++++”; When the half inhibitory concentration is greater than 100 nM and less than 500 nM, the compound activity is labeled as […] and less than 1000 nM, the compound activity is labeled as “++”; When the half inhibitory concentration is greater than 1000 nM and less than 3000 nM, the compound activity is marked as “+”; When the half inhibitory concentration is greater than 3000 nM, the compound activity is marked as […]

SNU5 = assay: Growth inhibition of gastric cancer cells SNU5 (CCK-8); details: Homo sapiens, SNU-5, half inhibitory concentration, 72 hours
Procedure: as §1, §2, §3, §4, §5, §6

DDR1, sequence (Q08345 19-913): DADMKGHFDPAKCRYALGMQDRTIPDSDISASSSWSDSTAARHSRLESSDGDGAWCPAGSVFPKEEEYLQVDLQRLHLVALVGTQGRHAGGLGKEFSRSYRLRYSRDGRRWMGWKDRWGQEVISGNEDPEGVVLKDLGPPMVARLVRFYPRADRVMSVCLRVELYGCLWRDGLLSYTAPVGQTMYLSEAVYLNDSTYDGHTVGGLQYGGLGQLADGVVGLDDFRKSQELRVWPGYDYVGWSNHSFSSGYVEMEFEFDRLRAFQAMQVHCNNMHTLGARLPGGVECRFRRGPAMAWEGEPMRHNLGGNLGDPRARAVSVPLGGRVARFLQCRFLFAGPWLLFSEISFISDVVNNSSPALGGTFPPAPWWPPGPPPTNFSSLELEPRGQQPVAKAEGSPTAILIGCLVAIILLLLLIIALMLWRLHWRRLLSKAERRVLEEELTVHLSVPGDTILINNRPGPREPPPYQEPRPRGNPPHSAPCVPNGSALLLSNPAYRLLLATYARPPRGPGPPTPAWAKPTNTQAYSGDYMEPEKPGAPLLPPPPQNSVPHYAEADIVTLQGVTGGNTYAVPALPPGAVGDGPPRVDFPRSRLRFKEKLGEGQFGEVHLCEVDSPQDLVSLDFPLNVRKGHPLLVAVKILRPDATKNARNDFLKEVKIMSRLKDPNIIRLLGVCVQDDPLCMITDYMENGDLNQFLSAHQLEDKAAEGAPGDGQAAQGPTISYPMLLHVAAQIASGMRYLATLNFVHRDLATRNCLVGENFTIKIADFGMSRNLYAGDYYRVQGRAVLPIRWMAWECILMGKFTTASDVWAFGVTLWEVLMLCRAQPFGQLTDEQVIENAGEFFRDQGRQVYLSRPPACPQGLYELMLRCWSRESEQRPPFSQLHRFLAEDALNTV

Row | Compound | Dmax (DDR1) [%] | IC50 (MKN45) [nM] | IC50 (SNU5) [nM]
1 | COc1cc2c(Oc3ccc(NC(=O)C4(C(=O)Nc5ccc(F)cc5)CC4)cc3)ccnc2cc1N1CCC(CN2C3CC2CN(CC(=O)Nc2cc4c(cn2)C(=O)N(C2CCC(=O)NC2=O)C4)C3)CC1 (stereo not drawn) [TPD12083] | 65 to 75 | ≤ 100 | ≤ 100
2 | COc1cc2c(Oc3ccc(NC(=O)C4(C(=O)Nc5ccc(F)cc5)CC4)cc3)ccnc2cc1N1CCC(CN2CCC(OCC(=O)N[C@H](C(=O)N3C[C@H](O)C[C@H]3C(=O)NCc3ccc(-c4scnc4C)cc3)C(C)(C)C)CC2)CC1 [TPD5407] | 75 to 85 | 100 to 500 | 500 to 1000
3 | COc1cc2c(Oc3ccc(NC(=O)C4(C(=O)Nc5ccc(F)cc5)CC4)cc3)ccnc2cc1N1CCC(C(=O)NCCCCC(=O)N[C@H](C(=O)N2C[C@H](O)C[C@H]2C(=O)NCc2ccc(-c3scnc3C)cc2)C(C)(C)C)CC1 [TPD5453] | 75 to 85 | 1000 to 3000 | 500 to 1000
4 | O=C1CCC(N2Cc3cc(NCCN4C5CC4CN(CC4CCN(c6cc7nccc(Oc8ccc(NC(=O)C9(C(=O)Nc%10ccc(F)cc%10)CC9)cc8)c7cc6F)CC4)C5)ncc3C2=O)C(=O)N1 (stereo not drawn) [TPD12086] | 75 to 85 | 100 to 500 | ≤ 100
5 | COc1cc2c(Oc3ccc(NC(=O)C4(C(=O)Nc5ccc(F)cc5)CC4)cc3)ccnc2cc1COCCN1CCN(CCNc2cccc3c2C(=O)N(C2CCC(=O)NC2=O)C3=O)CC1 (stereo not drawn) [TPD5316] | 75 to 85 | 500 to 1000 | 500 to 1000
6 | COc1cc2c(Oc3ccc(NC(=O)C4(C(=O)Nc5ccc(F)cc5)CC4)cc3)ccnc2cc1N1CCC(CN2C[C@@H]3C[C@H]2CN3CCC(=O)Nc2ccc3c(c2)CN(C2CCC(=O)NC2=O)C3=O)CC1 (stereo partly drawn) [TPD12218] | 65 to 75 | ≤ 100 | ≤ 100
7 | COc1cc2c(Oc3ccc(NC(=O)C4(C(=O)Nc5ccc(F)cc5)CC4)cc3)ccnc2cc1COCCN1CCC(CCNc2cccc3c2C(=O)N(C2CCC(=O)NC2=O)C3=O)CC1 (stereo not drawn) [TPD5313] | 65 to 75 | 100 to 500 | 100 to 500
8 | COc1cc2c(Oc3ccc(NC(=O)C4(C(=O)Nc5ccc(F)cc5)CC4)cc3)ccnc2cc1N1CCC(CN2CCN(CCNc3nccc4c3CN(C3CCC(=O)NC3=O)C4=O)CC2)CC1 (stereo not drawn) [TPD12001] | 65 to 75 | ≤ 100 | ≤ 100
9 | CNC(=O)c1ccc(-c2cnc3ncc(Cc4ccc5ncc(C(=O)N6CCC(CN7CCN(CC(=O)N[C@H](C(=O)N8C[C@H](O)C[C@H]8C(=O)NCc8ccc(-c9scnc9C)cc8)C(C)(C)C)CC7)CC6)cc5c4)n3n2)cc1F [TPD9006] | 75 to 85 | ≤ 100 | 100 to 500
10 | COc1cc2c(Oc3ccc(NC(=O)C4(C(=O)Nc5ccc(F)cc5)CC4)cc3)ccnc2cc1N1CCC(CN2C3CC2CN(CCNc2cc4c(cn2)C(=O)N(C2CCC(=O)NC2=O)C4)C3)CC1 (stereo not drawn) [TPD12081] | 75 to 85 | ≤ 100 | ≤ 100
11 | O=C1CCC(N2Cc3cc(NC(=O)CCN4CC5CC(C4)N5CC4CCN(c5cc6nccc(Oc7ccc(NC(=O)C8(C(=O)Nc9ccc(F)cc9)CC8)cc7)c6cc5OC(F)(F)F)CC4)ncc3C2=O)C(=O)N1 (stereo not drawn) [TPD12148] | 65 to 75 | ≤ 100 | ≤ 100
12 | O=C1CCC(N2Cc3cc(NC(=O)CN4C5CC4CN(CC4CCN(c6cc7nccc(Oc8ccc(NC(=O)C9(C(=O)Nc%10ccc(F)cc%10)CC9)cc8)c7cc6F)CC4)C5)ncc3C2=O)C(=O)N1 (stereo not drawn) [TPD12088] | 65 to 75 | 100 to 500 | ≤ 100
13 | N#Cc1cccc(-c2ccc(=O)n(Cc3cccc(-c4ncc(OCC5CCN(CCC(=O)Nc6cccc7c6CN(C6CCC(=O)NC6=O)C7=O)CC5)cn4)c3)n2)c1 (stereo not drawn) [TPD10013] | 65 to 75 | 1000 to 3000 | 500 to 1000
14 | O=C1CCC(N2Cc3c(NC(=O)CCN4CC5CC(C4)N5CC4CCN(c5cc6nccc(Oc7ccc(NC(=O)C8(C(=O)Nc9ccc(F)cc9)CC8)cc7)c6cc5OC(F)(F)F)CC4)cccc3C2=O)C(=O)N1 (stereo not drawn) [TPD12149] | 75 to 85 | ≤ 100 | ≤ 100
15 | COc1cc2c(Oc3ccc(NC(=O)C4(C(=O)Nc5ccc(F)cc5)CC4)cc3)ccnc2cc1N1CCC(CN2C[C@H]3C[C@@H]2CN3CCNc2cc3c(cn2)C(=O)N(C2CCC(=O)NC2=O)C3)CC1 (stereo partly drawn) [TPD12097] | 65 to 75 | ≤ 100 | ≤ 100
16 | COc1cc2c(Oc3ccc(NC(=O)C4(C(=O)Nc5ccc(F)cc5)CC4)cc3)ccnc2cc1N1CCC(CN2CCN(CCNc3cc4c(cn3)CN(C3CCC(=O)NC3=O)C4=O)CC2)CC1 (stereo not drawn) [TPD12009] | 65 to 75 | ≤ 100 | ≤ 100
17 | Cc1ncsc1-c1ccc(CNC(=O)[C@@H]2C[C@@H](O)CN2C(=O)[C@@H](NC(=O)CN2CCN(CC3CCN(C(=O)c4ccc(-c5cnc6ncc(Cc7ccc8ncccc8c7)n6n5)cc4F)CC3)CC2)C(C)(C)C)cc1 [TPD9004] | 75 to 85 | 100 to 500 | ≤ 100
18 | O=C1CCC(N2Cc3cc(C#CCCN4CC5CC(C4)N5CC4CCN(c5cc6nccc(Oc7ccc(NC(=O)C8(C(=O)Nc9ccc(F)cc9)CC8)cc7)c6cc5F)CC4)ccc3C2=O)C(=O)N1 (stereo not drawn) [TPD12237] | 65 to 75 | ≤ 100 | ≤ 100
19 | COc1cc2c(Oc3ccc(NC(=O)C4(C(=O)Nc5ccc(F)cc5)CC4)cc3)ccnc2cc1N1CCC(CN2C[C@@H]3C[C@H]2CN3CC(=O)Nc2ccc3c(c2)CN(C2CCC(=O)NC2=O)C3=O)CC1 (stereo partly drawn) [TPD12216] | > 85 | 500 to 1000 | ≤ 100
20 | COc1cc2c(Oc3ccc(NC(=O)C4(C(=O)Nc5ccc(F)cc5)CC4)cc3)ccnc2cc1N1CCC(CN2CC3CC(C2)N3CCCNc2cc3c(cn2)C(=O)N(C2CCC(=O)NC2=O)C3)CC1 (stereo not drawn) [TPD12118] | 65 to 75 | ≤ 100 | ≤ 100
